# Measured values from patent publication US20230203081A1, “LINCOSAMIDE ANTIBIOTICS AND USES THEREOF” (President and Fellows of Harvard College, priority 2020, published 2023).
# Where two headings read alike, the source gives them in different places.
# Legend:
# Type in all cases: cell-based
# [1] = system: S. aureus BAA 977 iErmA; test: microbe, parasite or virus in culture; settings: Staphylococcus aureus
# Procedure, shortened: (§1)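 Per CLSI, MICs by broth microdilution or agar dilution; strains other than streptococci and anaerobes were sub-cultured overnight at 35° C on blood agar, with a final broth inoculum of 5×10^5 CFU/mL.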
# [2] = system: E. coli armA; test: microbe, parasite or virus in culture; settings: Escherichia coli, E. coli HAV#056; Clinical, armA
# Procedure, shortened: as §1
# [3] = system: S. aureus MP-549 msrA; test: microbe, parasite or virus in culture; settings: Staphylococcus aureus, MP549MSRA
# Procedure, shortened: as §1
# [4] = system: E. coli ΔTolC; test: microbe, parasite or virus in culture; settings: Escherichia coli, E. coli HAV#038; ΔTolC
# Procedure, shortened: as §1
# [5] = system: broad panel of different clinical isolates; test: microbe, parasite or virus in culture
# Procedure, shortened: as §1
# [6] = system: S. aureus ATCC BAA-1707 (MRSA); test: MIC (broth microdilution or agar dilution, CLSI); settings: Staphylococcus aureus; S. aureus HAV#016, ATCC BAA-1707; MRSA; read-out: MIC
# Procedure, shortened: as §1
# [7] = system: K. oxytoca Clinical; test: MIC (broth microdilution or agar dilution, CLSI); settings: Klebsiella oxytoca; K. oxytoca HAV#450; Clinical; read-out: MIC
# Procedure, shortened: as §1
# [8] = system: S. pyogenes ATCC 19615; test: MIC (broth microdilution or agar dilution, CLSI); settings: Streptococcus pyogenes, read-out: MIC
# Procedure, shortened: as §1
# [9] = system: S. pyogenes MMX 946; cErmB; test: MIC (broth microdilution or agar dilution, CLSI); settings: Streptococcus pyogenes, cErmB, read-out: MIC
# Procedure, shortened: as §1
# [10] = system: H. influenzae ATCC 49247; test: MIC (broth microdilution or agar dilution, CLSI); settings: Haemophilus influenzae, ATCC49247
# Procedure, shortened: as §1
# [11] = system: A. baumannii ATCC 19606; test: MIC (broth microdilution or agar dilution, CLSI); settings: Acinetobacter baumannii, ATCC19606; A. baumanii HAV#010, ATCC 19606; read-out: MIC
# Procedure, shortened: as §1
# [12] = system: E. faecalis MMX 847; cErmB; test: MIC (broth microdilution or agar dilution, CLSI); settings: Enterococcus faecalis, cErmB, read-out: MIC
# Procedure, shortened: as §1
# [13] = system: S. pneumoniae MMX 3028 cErmB; test: MIC (broth microdilution or agar dilution, CLSI); settings: Streptococcus pneumoniae, MMX3028CERMB, read-out: MIC
# Procedure, shortened: as §1
# [14] = system: S. pneumoniae MMX 3031 cMefA; test: MIC (broth microdilution or agar dilution, CLSI); settings: Streptococcus pneumoniae, MMX3031CMEFA, read-out: MIC
# Procedure, shortened: as §1
# [15] = system: S. pneumoniae ATCC 49619; test: MIC (broth microdilution or agar dilution, CLSI); settings: Streptococcus pneumoniae, read-out: MIC
# Procedure, shortened: as §1
# [16] = system: E. coli ATCC 25922; test: MIC (broth microdilution or agar dilution, CLSI); settings: Escherichia coli
# Procedure, shortened: as §1
# [17] = system: S. pneumoniae ATCC 6303; test: MIC (broth microdilution or agar dilution, CLSI); settings: Streptococcus pneumoniae, ATCC6303; S. pneumoniae HAV#351, ATCC 6303; read-out: MIC
# Procedure, shortened: as §1
# [18] = system: E. coli LptD; test: MIC (broth microdilution or agar dilution, CLSI); settings: Escherichia coli, E. coli HAV#040; LptD; read-out: MIC
# Procedure, shortened: as §1
# [19] = system: S. aureus hVISA; test: MIC (broth microdilution or agar dilution, CLSI); settings: Staphylococcus aureus; S. aureus HAV#204, hVISA; read-out: MIC
# Procedure, shortened: as §1
# [20] = system: S. aureus MMX 3035 cErmA; test: MIC (broth microdilution or agar dilution, CLSI); settings: Staphylococcus aureus, MMX3035CERMA, read-out: MIC
# Procedure, shortened: as §1
# [21] = system: S. aureus ATCC 29213; test: MIC (broth microdilution or agar dilution, CLSI); settings: Staphylococcus aureus, read-out: MIC
# Procedure, shortened: as §1
# [22] = system: E. faecalis ATCC 29212; test: MIC (broth microdilution or agar dilution, CLSI); settings: Enterococcus faecalis, read-out: MIC
# Procedure, shortened: as §1
# [23] = system: K. pneumoniae ATCC 10031; test: MIC (broth microdilution or agar dilution, CLSI); settings: Klebsiella pneumoniae, ATCC10031, K. pneumoniae HAV#008, ATCC 10031; read-out: MIC
# Procedure, shortened: as §1
# [24] = system: E. coli MP-9 ΔTolC; test: MIC (broth microdilution or agar dilution, CLSI); settings: Escherichia coli
# Procedure, shortened: as §1
# [25] = system: E. coli MP-74 LptD mutant; test: MIC (broth microdilution or agar dilution, CLSI); settings: Escherichia coli
# Procedure, shortened: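 MICs were measured by CLSI broth microdilution or agar dilution over 128-0.06 μg/mL test compound at 2.5% final DMSO, in triplicate. Non-streptococcal, aerobic strains were grown overnight at 35° C on sheep blood agar, suspended in cation-adjusted Mueller-Hinton broth to 0.5 McFarland, and diluted to 5×10^5 CFU/mL.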
# [26] = S. aureus HAV#032, MP-549, MSR(A)
# [27] = Enterococcus faecalis, VRE, E. faecalis HAV#251, Clinical VRE
# [28] = Staphylococcus aureus, VISA, S. aureus HAV#203, Clinical (VISA)
# [29] = ATCC19615, S. pyogenes HAV#004, ATCC 19615
# [30] = S. pyogenes HAV#035, MMX 946, mac-resistant
# [31] = E. faecalis HAV#036, MMX 847, mac-resistant
# [32] = S. pneumoniae HAV#033, MMX 3028, cErmB
# [33] = S. pneumoniae HAV#034, MMX 3031, cMefA
# [34] = ATCC49619, S. pneumoniae HAV#003, ATCC 49619
# [35] = ATCC25922, E. coli HAV#006, ATCC 25922, read-out: MIC
# [36] = S. aureus HAV#031, MMX 3035, cErmA
# [37] = ATCC29213, S. aureus HAV#001, ATCC 29213, MP-549
# [38] = ATCC29212, E. faecalis HAV#005, ATCC 29212
# [39] = ATCC19615, S. pyogenes ATCC 19615
# [40] = H. influenzae ATCC 49247, read-out: MIC
# [41] = ATCC49619, S. pneumoniae ATCC 49619
# [42] = ATCC25922, E. coli ATCC 25922, read-out: MIC
# [43] = ATCC29213, S. aureus ATCC 29213
# [44] = ATCC29212, E. faecalis ATCC 29212
Compound,MIC ([1]; BAA-977 / MRSA) [µg/mL],"MIC [3, 26] [µg/mL]",MIC [4] [µg/mL],"MIC [5, 27] [µg/mL]","MIC [5, 28] [µg/mL]",MIC [6] [µg/mL],MIC [7] [µg/mL],"MIC [8, 29] [µg/mL]","MIC [9, 30] [µg/mL]","MIC [12, 31] [µg/mL]","MIC [13, 32] [µg/mL]","MIC [14, 33] [µg/mL]","MIC [8, 39] [µg/mL]","MIC [10, 40] [µg/mL]",MIC [24] [µg/mL],"MIC [15, 41] [µg/mL]","MIC [16, 42] [µg/mL]","MIC [21, 43] [µg/mL]","MIC [22, 44] [µg/mL]",MIC [25] [µg/mL],also measured
CC[C@H]1OC(=O)[C@H](C)[C@@H](O[C@H]2C[C@@](C)(OC)[C@@H](O)[C@H](C)O2)[C@H](C)[C@@H](O[C@@H]2O[C@H](C)C[C@H](N(C)C)[C@H]2O)[C@](C)(O)C[C@@H](C)C(=O)[C@H](C)[C@@H](O)[C@]1(C)O [Erythromycin],> 64,64,4,> 64,> 64,0.5,> 64,< 0.06,> 64,> 64,> 64,8,–,–,–,–,–,–,–,–,"MIC [2]: 32 µg/mL; MIC ([5]; Escherichia coli, E. coli HAV#501, Clinical): > 64 µg/mL; MIC ([5]; Klebsiella pneumoniae, K. pneumoniae HAV#041, Clinical, KPC): > 64 µg/mL; MIC ([5]; Staphylococcus aureus, MRSA, S. aureus HAV#017, MRSA Col(Colindale, England)): 0.5 µg/mL; MIC ([5]; Staphylococcus aureus, S. aureus HAV#216, Clinical, cfr): 32 µg/mL; MIC ([5]; Staphylococcus aureus, S. aureus HAV#217, cfr): 64 µg/mL; MIC ([5]; Staphylococcus epidermidis, S. epidermidis HAV# 275 Clinical, cfr): 8 µg/mL; MIC ([5]; Staphylococcus epidermidis, S. epidermidis HAV# 276, cfr): > 128 µg/mL; MIC ([10]; H. influenzae HAV#007, ATCC 49247, read-out: MIC): 8 µg/mL; MIC [11]: 64 µg/mL; MIC [15, 34]: ≤ 0.06 µg/mL; MIC [16, 35]: 64 µg/mL; MIC [17]: 0.5 µg/mL; MIC [18]: 1 µg/mL; MIC [19]: > 64 µg/mL; MIC [20, 36]: > 64 µg/mL; MIC [21, 37]: 0.5 µg/mL; MIC [22, 38]: 2 µg/mL; MIC [23]: 8 µg/mL"
CSC1O[C@H]([C@H](NC(=O)[C@@H]2[C@@H]3OCC[C@@H](C4CCCC4)C[C@H]3CN2C)[C@H](C)Cl)CC(O)[C@H]1O (stereo partly shown) [FSA-513001b],–,–,–,–,–,–,–,–,–,–,–,–,0.06,4,2,0.06,64,0.12,0.12,4,MIC ([1]; BAA977): 0.12 µg/mL; MIC ([3]; S. aureus MP-549 msrA): 0.12 µg/mL; MIC ([9]; S. pyogenes MMX 946): 16 µg/mL; MIC ([12]; E. faecalis MMX 847): 16 µg/mL; MIC ([13]; S. pneumoniae MMX 3028 cErmB): 16 µg/mL; MIC ([14]; S. pneumoniae MMX 3031 cMefA): ≤ 0.06 µg/mL; MIC ([20]; S. aureus MMX 3035 cErmA): 32 µg/mL
CSC1O[C@H]([C@H](NC(=O)[C@@H]2[C@@H]3OCC[C@H](C4CCCCC4)C[C@H]3CN2C)[C@H](C)Cl)CC(O)[C@H]1O (stereo partly shown) [FSA-513002a],–,–,–,–,–,–,–,–,–,–,–,–,1,> 64,64,0.5,> 64,1,2,64,–
CSC1O[C@H]([C@H](NC(=O)[C@@H]2[C@@H]3OCC[C@@H](C4CCCCC4)C[C@H]3CN2C)[C@H](C)Cl)CC(O)[C@H]1O (stereo partly shown) [FSA-513002b],–,–,–,–,–,–,–,–,–,–,–,–,0.25,8,8,0.25,128,0.5,0.5,16,–
CSC1O[C@H]([C@H](NC(=O)[C@@H]2[C@@H]3OCC[C@H](CC(C)(C)C)C[C@H]3CN2C)[C@H](C)Cl)CC(O)[C@H]1O (stereo partly shown) [FSA-513004a],–,–,–,–,–,–,–,–,–,–,–,–,0.25,–,> 128,0.5,–,1,1,128,"MIC [10]: 128 µg/mL; MIC ([16]; ATCC25922, E. coli ATCC 25922): > 128 µg/mL"
Cc1onc(-c2ccccc2)c1C(=O)N[C@@H]1C(=O)N2[C@@H]1SC(C)(C)[C@@H]2C(=O)O [Oxacillin],0.5,64,16,> 64,64,> 64,> 64,0.125,0.25,64,2,16,–,–,–,–,–,–,–,–,"MIC ([5]; Staphylococcus aureus, MRSA, S. aureus HAV#0107, MRSA Col(Colindale, England)): > 64 µg/mL; MIC [15, 34]: 2 µg/mL; MIC [16, 35]: > 64 µg/mL; MIC [17]: 0.5 µg/mL; MIC [18]: 4 µg/mL; MIC [19]: 64 µg/mL; MIC [20, 36]: > 64 µg/mL; MIC [21, 37]: 0.5 µg/mL; MIC [22, 38]: 32 µg/mL"
